Experimental data as given in paper PMC10126419, “pyHeart4Fish: Chamber-specific heart phenotype quantification of zebrafish in high-content screens” (Frontiers in Cell and Developmental Biology, 2023).
“Also recorded” adds a separate entry of the source. Structures can show the parent of a compound that is named as a salt.

Legend:
[1] = system: Tg(myl7:eGFP)^twu34/+ zebrafish embryos; conditions: 20 µM; for Embryos with Mobitz type II atrioventricular block (AVB): Tg(myl7:eGFP)^twu34/+, zebrafish, in vivo, 24 h
Source text: Nevertheless, it is advised that arrhythmia types are confirmed manually, as was done in this study.

[2] = system: Tg(myl7:eGFP)^twu34/+ zebrafish embryos; assay: Chamber-specific quantitative heart phenotyping with pyHeart4Fish; conditions: 20 µM; for Effect on heart rate / Effect on heart function / morphology: contractility, conduction, arrhythmia, HS, EF: vs DMSO controls; for Arrhythmia / Conduction defect: number of fish;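 as to all read-outs here: embryos exposed 24 h from 24 hpf in 0.2% DMSO egg water, tricaine-anaesthetised, heartbeat videos imaged at 470 nm and hearts analysed chamber by chamber from pixel-intensity beat curves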
Experimental: (§1) Embryos were dechorionated at 21 hpf using 0.22 mg/ml pronase (Merck Chemicals) for 12 min. Then, embryos were carefully washed three times with egg water and transferred into a 96-deep-well plate. After incubation at 28°C for 3 h, excess water was removed with a glass capillary and exchanged with 100 µL/well of 20 µM compound solution from the Prestwick Chemical Library (Prestwick Chemicals, France) in 0.2% DMSO (v/v) in egg water. […] Subsequently, embryos were exposed to compounds for 24 h at 28°C in the dark to enable testing of light-sensitive compounds. Solutions were removed at 48 hpf before wells containing embryos were washed three times with system water. Then, treated embryos were transferred into 12-well plates containing 1 ml 0.03% tricaine in system water (Sigma-Aldrich, Germany). Testing different concentrations (5–80 µM) of compounds and their respective controls followed the above protocol.
Oriented embryos in 96-well plates were automatically imaged using an [sequence] Imaging Machine ([sequence] Imaging, Germany) widefield microscope. Z-stacks of 10 slices (dZ = 15 µm) were acquired in brightfield (BF) and 470 nm channels with a 4×0.13 numerical aperture objective. The focal plane was detected in the 470 nm channel using a course and secondary fine software autofocus. BF integration time was fixed at 20 ms exposure time and 55% LED intensity. The exposure time for the 470 nm channel was set to 10 ms with a 10% LED intensity. Heartbeat videos of 6 s at 6 frames/second (f/s) were acquired with a time-lapse at a 0 s interval in the focus plane acquired after secondary autofocus using the previously described integration and exposure settings with a 10×0.25 numerical aperture objective.
Hearts are analyzed chamber-specifically via the user-assisted region of interest (ROI) selection. Cardiac morphology parameters (HS and shape) are extracted as the median of the first six images/frames. Raw data of heartbeat curves for the atrium and ventricle are derived from the sum of pixel intensities and normalized chamber areas. Frequencies (in s^-1) of atrium and ventricle contraction are obtained by applying sine-curve fitting or fast Fourier transformation (FFT) using the SciPy modules “optimize.curve_fit” and “fft.rfft/fft.rfftfreq”, respectively ([Virtanen et al., 2020]). Curve fitting is performed with a maximum of 30 iterations while increasing the frequencies of the fitted sine function. The best fit is selected using the correlation coefficient between the raw data and the fitted function implemented in the NumPy package. A fitted sine function and fitting score are also determined for a truncated signal (first quarter), and the best-fitted sine function is kept to account for an unstable heartbeat signal. In the case of FFT, the first harmonic of the FFT signal is used as the frequency of the atrium or ventricle contraction. Analysis with pyHeart4Fish provides heartbeat videos in GIF format, heartbeat curves as PNG/PDF files and a data sheet containing meta information and cardiac parameters.

zebrafish embryos [3] = assay: Manually assessed pericardial edema in treated zebrafish; format: in vivo; conditions: 20 µM; for Edema: Mild / Edema: Moderate / Edema: No edema / Edema: Severe: number of fish, Tg(myl7:eGFP); for Pericardial edema severity: myl7:eGFP zebrafish
Source text: FIGURE 4 Quantitative data analysis with pyHeart4Fish. […] (A) The left graph presents the detected heart rate derived from the fast fourier transformation (FFT). […] (B) Percentual data on the severity of manually assessed pericardial edema in treated Tg(myl7:eGPF)^twu34/+ zebrafish. (C) The relative contractility derived from percentual size changes of each heart chamber (left graph). Approximate ejection fraction determined by chamber volume changes (right graph). […] The number of fish analyzed is shown in brackets after the treatment condition. Dotted gray lines indicate z-scores of ±1.96 and statistical significance with an alpha error of 5%.

zebrafish embryos [4] = assay: Toxicity score (ToxScore) at increasing compound concentrations; conditions: for Concentration-dependent toxic effects: 5–80 µM; for ToxScore: 80 µM
Experimental: as §1
Embryos that were deceased and not intact were assigned a max. ToxScore value of 5.

[5] = parameters: method as in Prestwick Chemical Library; conditions: solvents; library annotation, ref Prestwick Chemical Library; cited from earlier work
[6] = parameters: method as in Prestwick Chemical Library; conditions: library annotation, ref Prestwick Chemical Library; cited from earlier work
[7] = system: Tg(fli1a:nEGFP)^y7 zebrafish embryos; assay: Primary high-content heart rate screen of the Prestwick Chemical Library (HeartBeat software v.2.1); format: in vivo; conditions: Tg(fli1a:nEGFP)^y7, zebrafish, in vivo, 24 h, 20 µM
Source text: Acquired image series were preprocessed and analyzed using the previously published HeartBeat software v.2.1 and provided scripts ([Gierten et al., 2020]). For increased comparability between experiments, each quantitative HR value (beats per minute) was divided by the mean of the DMSO controls from the respective experiment. This procedure minimizes variation and creates specific fold-change values that are z-score normalized in the next step. A 90% CI was used to reduce the probability of false-negative results. Finally, data from compounds with insufficient N and known aquatic toxicity were removed.
Based on a previously established high-throughput screening pipeline, we performed a high-content drug screen in zebrafish for cardiovascular modulators ([Poureetezadi et al., 2014]; [Gierten et al., 2020]; [Westhoff et al., 2020]). […] About 98% of the library’s compounds are approved by the Food and Drug Administration (FDA), European Medicines Agency (EMA) or other regulatory agencies. The drug library was screened at a concentration of 20 µM for 24 h until 48 hpf using the transgenic zebrafish line Tg(fli1a:nEGFP)^y7. Subsequently, BF images and videos were captured at 2 dpf to assess gross morphology. HR was analyzed with the previously published tool HeartBeat (v.2.1) to identify potential hit compounds. A 90% CI threshold for effect sizes of ±1.64 was used to reduce false-negative results. […] The Open Targets platform and the Mayo Clinic Drugs and Supplements Database were systematically searched for compound names and common synonyms ([Drugs and Supplements, 2022]; [Open Targets, 2022]). The Medical Subject Headings (MeSH) terms “compound name” and “heart rate” were applied to NCBI PubMed literature research before the first five pages of publications sorted by relevance were screened for relevant information. Furthermore, compounds were filtered for unknown targets (n = 3), FDA black box warning (n = 6) and aquatic toxicity (n = 4). […] Therefore, compounds with n < 3 were excluded (n = 7).

zebrafish embryos [8] = conditions: 71 μM, ref Yang et al., 2014; cited from earlier work
zebrafish embryos [9] = assay: Gross morphology / development of treated zebrafish 2 dpf (brightfield); format: in vivo; conditions: 20 µM, 2 dpf
Experimental: FIGURE 5 Morphology of treated zebrafish 2 dpf. An overview of the gross phenotypes of treated zebrafish 2 days post-fertilization. All compounds were dissolved in DMSO; therefore, DMSO served as the negative control. NaCl served as the salt control. The effects of atorvastatin treatment on zebrafish embryos were previously established; thus, this drug was used as a positive control for cardioactivity. The aquatic toxic compound enilconazole was used as the toxic positive control. […] The black arrow in the image of iopanoic acid-treated zebrafish embryo indicates caudal fin deformity. The scale bar indicates 500 µm in overview brightfield images and 150 µm in fluorescence images. (a) Atrium; (v) ventricle.

zebrafish embryos [10] = assay: Manually assessed pericardial edema in treated zebrafish; format: in vivo; conditions: 20 µM, fli1a:eGFP zebrafish

| SMILES | Effect on heart rate [2] | Arrhythmia [2] | Conduction defect [2] | Edema: Mild (zebrafish embryos [3]) | Edema: Moderate (zebrafish embryos [3]) | Edema: No edema (zebrafish embryos [3]) | Edema: Severe (zebrafish embryos [3]) | Lit. Solubility [5] | Z-score Heart rate [7] | further results |
| --- | --- | --- | --- | --- | --- | --- | --- | --- | --- | --- |
| CNCC[C@@H](Oc1cccc2ccccc12)c1cccs1 [(R)-Duloxetine HCl] | not significantly decreased | 0 | 2 | 1 | 3 | 0 | 2 |  |  | Treated embryos with atrial flutter [1]: 33%; Fraction of embryos with atrial flutter ([1]; manual analysis of heartbeat videos): one-third; Concentration-dependent toxic effects (zebrafish embryos [4]; listed as DLX): dose-dependently increased the ToxScore; also recorded: complete lethality at 80 µM |
| COc1ccc(CCN2CCC(Nc3nc4ccccc4n3Cc3ccc(F)cc3)CC2)cc1 [Astemizole] |  |  |  |  |  |  |  | CH2Cl2, MeOH | -7.189 z-score | Metabolism: tissue [6]: Liver |
| CN(C)CCN(Cc1ccc(Cl)cc1)c1ccccn1 [Chloropyramine HCl, chloropyramine HCl] | decreased HR | 0 | 2 | 4 | 7 | 0 | 0 | DMSO | -2.971 z-score | Embryos with Mobitz type II atrioventricular block (AVB) [1]: 18.2%; Effect on heart function / morphology: contractility, conduction, arrhythmia, HS, EF [2]: a slower HR in the ventricle than in the atrium; ToxScore (zebrafish embryos [4]): 4.8 |
| C[C@@H]1C[C@@H]([C@H](O)CC2CC(=O)NC(=O)C2)C(=O)[C@@H](C)C1 [Cycloheximide] |  | 3 | 0 | 0 | 3 | 1 | 3 |  |  | Effect on ventricular volume (zebrafish embryos [8]): decreased ventricular volume; Pericardial edema severity (zebrafish embryos [3]): moderate to severe pericardial edema; Gross morphology / developmental and teratogenic effects (zebrafish embryos [9]; listed as CHX): bent tails; also recorded: development was delayed; Concentration-dependent toxic effects (zebrafish embryos [4]): doses higher than 40 µM induced cardiac arrest and severe pericardial edema |
| CCC(Cc1c(I)cc(I)c(N)c1I)C(=O)O (stereo not shown) [Iopanoic acid] |  | 0 | 0 | 2 | 1 | 1 | 0 |  |  | Pericardial edema severity (zebrafish embryos [10]): moderate edema; Effect on heart function / morphology: contractility, conduction, arrhythmia, HS, EF [2]: Contractility, HS and EF were not affected; Pericardial edema severity (zebrafish embryos [3]): mild edema; Gross morphology / developmental and teratogenic effects (zebrafish embryos [9]; listed as IOP): developmental delay; also recorded: caudal fin deformities; ToxScore (zebrafish embryos [4]): 4.4 |
| Cc1cccc(CN2CCN(C(c3ccccc3)c3ccc(Cl)cc3)CC2)c1.Cl.Cl (stereo not shown) [Meclozine dihydrochloride] |  |  |  |  |  |  |  | CHCl3, pyridine |  | Metabolism: tissue [6]: Liver |
| CN(C)CCN(Cc1cccs1)c1ccccn1 [Methapyrilene HCl, methapyrilene HCl] | decreased HR | 2 | 2 | 1 | 2 | 1 | 1 | H2O, EtOH, CHCl3 | -2.21 z-score | Embryos with Mobitz type II atrioventricular block (AVB) [1]: 50% |
